In PMC2990756, “Quantitative High-Throughput Screening Identifies 8-Hydroxyquinolines as Cell-Active Histone Demethylase Inhibitors” (PLoS ONE, 2010):
Like-named read-outs stand apart in the source and are kept apart here.

Experiments:
Assay type in all cases: biochemical
JMJD2E (KDM4E) = target: T1, JMJD2E (KDM4E) (Homo sapiens, UniProt B2RXH2); assay: qHTS fluorescence FDH-coupled JMJD2E demethylase assay
T1 construct: The catalytic domain of human JMJD2E (residues 1–337); His6 (N); made in house; host or cells: E. coli
T1 sequence (B2RXH2 1-337): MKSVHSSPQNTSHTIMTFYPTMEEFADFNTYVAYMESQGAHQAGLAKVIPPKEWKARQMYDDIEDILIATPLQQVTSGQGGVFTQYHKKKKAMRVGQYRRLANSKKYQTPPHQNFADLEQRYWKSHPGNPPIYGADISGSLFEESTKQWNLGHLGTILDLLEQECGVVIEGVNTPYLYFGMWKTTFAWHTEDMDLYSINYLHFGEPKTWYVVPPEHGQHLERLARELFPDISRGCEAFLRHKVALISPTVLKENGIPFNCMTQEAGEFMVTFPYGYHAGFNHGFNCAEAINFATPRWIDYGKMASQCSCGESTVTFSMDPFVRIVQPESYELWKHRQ
From the text: The oxidation of formaldehyde is coupled to the reduction of NAD^+ to NADH, which is monitored by fluorescence spectroscopy. […] To this end, initial screening hits were filtered by a combination of cheminformatics (to exclude low-confidence inhibitors and autofluorescent false positives), counterscreening against the coupled-assay component formaldehyde dehydrogenase (FDH), and orthogonal direct detection of inhibition of demethylation by mass spectrometry ( Figure 1 ).
Reactions were initiated with 1 µL addition of peptide substrate solution containing final concentrations of 10 µM FAS, 50 µM 2OG, 0.25 U/mL FDH, 0.25 mM NAD^+, and 50 µM peptide substrate (ARK(me3)STGGK). A ViewLux imager (PerkinElmer, Waltham, MA) was used to measure NADH fluorescence (λex 340 nm, λem 450 nm) immediately after substrate addition and following 30 min incubation at room temperature. To record any systematic drifts in assay behavior (signal window and noise), assay plates containing no library compounds but only DMSO as a vehicle control were tested periodically (every ∼60 plates) throughout the screen.
Data were normalized to the basal response (0% activity) in the absence of enzyme and the maximal response (100% activity) in the absence of compound. Using the Hill equation, dose-response curves and IC50 values were automatically generated for each compound tested with software developed internally (www.ncgc.nih.gov/pub/openhts/curvefit/). […] The initial well fluorescence (first kinetic read) associated with each sample was stored in a database and used in the cheminformatics analysis to identify autofluorescent compounds interfering with the assay signal.

[1] = target: T2, formaldehyde dehydrogenase (FDH) (Pseudomonas putida, UniProt P46154); assay: FDH coupling enzyme counterscreen
T2 construct: purchased Sigma-Aldrich
From the text: Dimethylsulfoxide certified ACS grade (DMSO) was from Fisher, Inc. HEPES buffer was obtained from Gibco. […] Black solid-bottom 1,536-well assay plates were from Greiner Bio-One (Monroe, NC).

JMJD2E = target: T3, JMJD2E (Homo sapiens, UniProt B2RXH2); assay: JMJD2E FDH-coupled assay under low and high iron conditions (iron chelation profile); set-up: The catalytic domain of human JMJD2E (residues 1–337); His6 (N); made in house; host or cells: E. coli
T3 sequence (B2RXH2 1-337): T1 sequence (B2RXH2 1-337)
Method: The prioritized compounds were also evaluated in the screening assay using two different ferrous ion concentrations (termed high iron and low iron, respectively), in order to assess their propensity for iron chelation.
The ratio of IC50 values under high iron to low iron was calculated for each compound.

[2] = Table S1, unit not in table, from Figure 2, read-out: qHTS Data: jmjd2e IC50
[3] = Table S1, high iron, head says 20 µM FAS, unit not in table, from Figure 2, read-out: qHTS Data: jmjd2e fas20um IC50
[4] = Table S1, low iron 2.5 µM FAS, unit not in table, from Figure 2, read-out: qHTS Data: jmjd2e fas2.5um IC50
[5] = Table S1, FDH counterscreen, unit not in table, from Figure 2, read-out: qHTS Data: jmjd2e fdh IC50

T2 sequence (P46154 whole entry): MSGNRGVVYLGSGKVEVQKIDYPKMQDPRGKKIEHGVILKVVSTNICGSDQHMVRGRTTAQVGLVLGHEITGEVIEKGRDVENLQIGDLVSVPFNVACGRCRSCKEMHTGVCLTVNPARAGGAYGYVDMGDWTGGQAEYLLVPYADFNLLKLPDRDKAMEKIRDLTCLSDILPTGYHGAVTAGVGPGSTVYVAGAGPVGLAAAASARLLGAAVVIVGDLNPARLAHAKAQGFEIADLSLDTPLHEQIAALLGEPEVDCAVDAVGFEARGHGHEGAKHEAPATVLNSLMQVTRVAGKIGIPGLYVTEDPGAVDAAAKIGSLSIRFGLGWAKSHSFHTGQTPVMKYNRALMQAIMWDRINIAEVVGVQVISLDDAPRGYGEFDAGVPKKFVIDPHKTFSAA

SMILES	IC50 (JMJD2E (KDM4E); [2]) [µM]	qHTS Data: jmjd2e fdh CurveClass ([1]; Table S1, FDH counterscreen)	IC50 (JMJD2E; [3]) [µM]	IC50 (JMJD2E; [4]) [µM]	qHTS Data: jmjd2e fas20um CurveClass (JMJD2E; Table S1, high iron)	IC50 (JMJD2E (KDM4E); Figure 2, 100 nM JMJD2E, 10 µM FAS, read-out: IC50 values in μM, qHTS) [µM]	IC50 ([1]; Figure 2, 0.025 U/mL FDH, 10 µM formaldehyde, read-out: IC50 values in μM, FDH) [µM]	IC50 (JMJD2E; Figure 2, high iron 25 µM Fe(II), read-out: IC50 values in μM, High Fe) [µM]	IC50 [1, 5] [µM]	qHTS Data: jmjd2e fas2.5um Curve comment (JMJD2E; Table S1, low iron 2.5 µM FAS)
Cc1cc(C(=O)NNC(=S)Nc2ccccc2)nn1C [compound 24796479]	8.91	Inactive	7.94	7.08	–	–	–	–	–	–
C[C@@H]1Cc2c(O)c(O)cc(O)c2C(=O)O1 [compound 26657786]	2	Inactive	–	3.55	Inactive	–	–	–	–	–
O=C1c2ccc(O)c(O)c2C(=O)c2c(O)ccc(O)c21 [compound 26749241]	3.55	Inactive	15.8	2.51	–	–	–	–	–	–
CCOc1cccc(C(=O)c2ccc(O)c(O)c2O)c1 [compound 26749554]	10	Inactive	8.91	4.47	–	–	–	–	–	–
Cc1ccc(O)c(N=NC2=C(O)CC(C)(C)CC2=O)c1 [compound 22414549]	0.56	Inactive	–	5.62	Inactive	–	–	–	–	–
Oc1ccc(NCc2ccccc2OCc2ccccc2F)cc1 [SID 17385881]	–	–	–	–	–	5	> 57	14.1	–	–
CCc1ccc2c(O)c3c(cc2c1C(=O)OC)C(=O)c1c(O)ccc(O)c1C3=O [compound 26749155]	2.82	Poor quality curve	11.2	3.98	–	–	–	–	3.16	–
O=C(NC(=S)NNC(=O)c1ccccc1O)c1ccco1 [compound 17504924]	7.08	Poor quality curve	–	3.55	Inactive	–	–	–	2.82	–
CC(C)C1C(=O)C(C(N)=O)=C(O)[C@@]2(O)C(=O)C3=C(O)c4c(O)ccc(N(C)C)c4C[C@H]3C[C@@H]12.Cl (stereo partly drawn) [compound 50106632]	10	Inactive	12.6	12.6	Poor quality curve	–	–	–	–	–
NC(=O)c1ccc(-n2nnnc2SCC(=O)c2ccc(O)c(O)c2)cc1 [compound 24821381]	0.71	Inactive	–	7.94	Inactive	–	–	–	–	–
O=c1cnnc(N/N=C/c2ccccn2)[nH]1 [compound 26726276]	3.55	Inactive	–	6.31	Inactive	–	–	–	–	–
O=C(CSc1ncn[nH]1)CSc1ncn[nH]1 [compound 24783149]	3.55	–	–	6.31	Inactive	–	–	–	1	–
O=c1c(-c2cc(O)c(O)c(O)c2)coc2cc(O)c(O)c(O)c12 [compound 26749510]	2.82	–	14.1	1	–	–	–	–	3.98	–
C=CCc1c(C)nc(C)nc1N/N=C/c1ccccc1O [compound 14741635]	3.16	Inactive	–	3.16	Inactive	–	–	–	–	–
Oc1c(C(Nc2nccs2)c2ccc(C(F)(F)F)cc2)ccc2cccnc12 (stereo not drawn) [compound 24832893]	3.55	Inactive	12.6	28.2	–	–	–	–	–	–
CN(C)S(=O)(=O)c1cccc(-n2sc3ccccc3c2=O)c1 [compound 24834029]	3.55	Poor quality curve	1.26	4.47	–	–	–	–	7.94	–
COc1ccc(N2C(=O)CC(Sc3ncn[nH]3)C2=O)c(OC)c1 (stereo not drawn) [compound 7974422]	2.82	–	35.5	1.41	Poor quality curve	–	–	–	0.32	–
CC(C)c1ccc(N2C(=O)CC(Sc3ncn[nH]3)C2=O)cc1 (stereo not drawn) [compound 14726804]	1.58	–	19.9	2.51	Poor quality curve	–	–	–	0.25	–
CNC[C@H](O)c1ccc(O)c(O)c1 [compound 26754418]	7.08	Inconclusive	12.6	5.01	–	–	–	–	–	–
CC1=CC(=O)c2c(O)cccc2C1=O [compound 26747815]	8.91	Poor quality curve	12.6	2.24	–	–	–	–	17.8	–
CN[C@@H](C)[C@H](O)c1ccccc1.CN[C@@H](C)[C@H](O)c1ccccc1.O=S(=O)(O)O [compound 50106282]	3.55	Poor quality curve	7.94	2.24	1.2	–	–	–	12.6	–
CCOC(=O)Cc1csc(-n2sc3ccccc3c2=O)n1 [compound 3716597]	10	Inactive	–	7.08	Inactive	–	–	–	–	–
Cl.NCCc1cc(O)c(O)cc1O [compound 26748180]	6.31	Poor quality curve	7.94	2.51	–	–	–	–	–	–
O=C(CCc1ccccc1)NCC(=O)N/N=C/c1ccc(O)cc1O [compound 26660953]	6.31	Poor quality curve	4.47	4.47	–	–	–	–	17.8	–
CCN1/C(=C\c2ccc3ccccc3[n+]2CC)Sc2cc(C)ccc21.[I-] [compound 24782097]	1.41	Poor quality curve	14.1	17.8	Poor quality curve	–	–	–	22.4	Poor quality curve
O=C(O)c1cc(O)c(O)c(O)c1 [compound 26747307]	0.35	Poor quality curve	17.8	0.13	–	–	–	–	31.6	–
O=C(O)c1cccc(C(=O)O)n1 [compound 863941]	8.91	Inactive	7.94	2.82	–	–	–	–	–	–
Cc1ccc(N2C(=O)CC(Sc3ncn[nH]3)C2=O)cc1 (stereo not drawn) [compound 14726735]	2.51	–	31.6	2	Poor quality curve	–	–	–	0.32	–
O=c1c(O)c(Br)ccc2c(Br)c(O)c(O)c(O)c12 [compound 50110019]	7.08	Poor quality curve	–	5.01	Inconclusive	–	–	–	28.2	–
Cc1cc(C(=O)NNC(=S)NC(=O)/C=C/c2ccccc2Cl)n[nH]1 [compound 14736067]	7.94	Inactive	–	8.91	Inactive	–	–	–	–	–
